# Test results: article PMC3930709, “Selective Activation of hTRPV1 by N-Geranyl Cyclopropylcarboxamide, an Amiloride-Insensitive Salt Taste Enhancer” (PLoS ONE, 2014)
# Tests used:
# [1] = system: mock-transfected HEK293T cells; assay: Ca2+ imaging of mock-transfected HEK293T cells (control); assay type: cell-based, human; details: single concentration
# Protocol: Mock-transfected HEK293T cells, hTRPV1-expressing HEK293T cells, non-hTRPA1-expressing Flp-In 293 cells, and hTRPA1-expressing Flp-In 293 cells grown in 96-well black-wall plates were rinsed with assay buffer (130 mM NaCl, 10 mM glucose, 5 mM KCl, 2 […]2, 1.2 mM MgCl2, and 10 mM HEPES, pH 7.4) and loaded with 5 μM Fura-2 AM (Invitrogen) for 30 min at 27°C. The cells were washed with assay buffer and treated with ligands. […] The fluorescence intensities of Fura-2 excited at 340 and 380 nm were simultaneously measured at 510 nm using a computer-controlled filter changer (Lambda DG4; Sutter, San Rafael, CA, USA), an Andor Luca CCD camera (Andor Technology, Belfast, UK), and an inverted fluorescence microscope (IX-71; Olympus, Tokyo, Japan). Intracellular calcium images were recorded every 3-s for 60-s and analyzed using MetaFluor software (Molecular Devices, Sunnyvale, CA, USA).
# hTRPV1 = molecular target: T1, hTRPV1 (Homo sapiens, UniProt Q8NER1); assay: Whole-cell patch clamp recording, hTRPV1-expressing HEK293T cells; assay type: cell-based; details: capsaicin 100 nM; NGCC 10^3 µM; holding -80 mV
# T1 construct: expressed in transfected cells; host or cells: HEK293T
# Protocol: (§1) Mouse ASIC1a (mASIC1a) was a kind gift from John A. Wemmie (University of Iowa, IA, USA). For electrophysiological experiments, HEK293T cells were cultured in DMEM supplemented with 10% FBS and 0.2% penicillin/streptomycin and transiently transfected using Lipofectamine 2000 (Invitrogen) with various cDNAs. For TRPV1 channel expression, cells were transfected with hTRPV1, for ASIC1a homomeric channel expression, cells were transfected with mASIC1a. When needed, 0.1–0.2 µg of cDNA encoding tetrameric red fluorescence protein (DsRed) was co-transfected with the cDNA as a marker for successfully transfected cells. For non-transfected cells, cells were transfected with 0.1–0.2 µg of cDNA encoding DsRed alone. The next day, cells were plated onto poly-L-lysine-coated coverslip chips, and fluorescent cells were studied within 1–2 days.
# The whole-cell configuration was used to voltage-clamp at room temperature (22–25°C). Electrodes pulled from glass micropipette capillaries (Sutter Instrument) had resistances of 2–2.5 MΩ, and series resistance errors were compensated >60%. Fast and slow capacitances were compensated before the application of test-pulse. Recordings were performed using aHEKAEPC-10 amplifier with pulse software (HEKA Elektronik). The pipette solution contained: 140 mM KCl, 5 mM MgCl2, 10 mM HEPES, 0.1 mM 1,2-bis(2-aminophenoxy) ethane N,N,N’,N’-tetraacetic acid(BAPTA), 3 mM Na2ATP, and 0.1 mM Na3GTP, adjusted to pH 7.4 with KOH. The external Ringer’s solution used for recording TRPV1 and TRPA1 currents contained: 150 mM NaCl, 5 mM KCl, 1 mM MgCl2, 2 mM EGTA, 10 mM Glucose, and 10 mM HEPES, adjusted to pH 7.4 with NaOH. TRPV1 and TRPA1 currents were recorded by holding the cell at −80 mV. The external Ringer’s solution used for recording ASIC current contained: 160 mM NaCl, 5 mM KCl, 1 mM MgCl2, 2 mM CaCl2, and 10 mM HEPES, adjusted to pH 7.4 with tetramethylammonium hydroxide. For acidic solution of pH 6.0, HEPES was replaced with MES. ASIC currents were recorded by holding the cell at −70 mV. Reagents were obtained as follows: BAPTA, Na2ATP, Na3GTP, EGTA, and tetramethylammonium hydroxide (Sigma), HEPES (Calbiochem), MES (Alfa Aesar), and other chemicals (Merck).
# mASIC1a = molecular target: T2, mASIC1a (Mus musculus, UniProt Q6NXK8); assay: Whole-cell patch clamp recording, mASIC1a-expressing HEK293T cells; assay type: cell-based; details: NGCC 1 mM; holding -70 mV; n = 5
# T2 construct: expressed in transfected cells; host or cells: HEK293T (cDNA gift from John A. Wemmie, University of Iowa)
# T2 sequence (Q6NXK8 1-526): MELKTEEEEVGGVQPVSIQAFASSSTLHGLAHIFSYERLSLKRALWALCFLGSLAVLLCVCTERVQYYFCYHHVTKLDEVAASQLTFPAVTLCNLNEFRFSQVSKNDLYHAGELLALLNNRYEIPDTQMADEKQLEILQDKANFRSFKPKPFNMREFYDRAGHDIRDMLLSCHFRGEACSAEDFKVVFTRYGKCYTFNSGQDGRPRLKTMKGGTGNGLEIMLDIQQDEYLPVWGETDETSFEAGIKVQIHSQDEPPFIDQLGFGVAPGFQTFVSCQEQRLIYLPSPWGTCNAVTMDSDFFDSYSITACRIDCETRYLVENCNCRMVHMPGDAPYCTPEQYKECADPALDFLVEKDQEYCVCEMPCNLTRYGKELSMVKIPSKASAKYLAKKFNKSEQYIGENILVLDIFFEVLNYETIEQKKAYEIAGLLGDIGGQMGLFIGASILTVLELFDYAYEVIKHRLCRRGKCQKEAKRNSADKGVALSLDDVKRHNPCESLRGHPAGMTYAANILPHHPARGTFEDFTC
# Protocol: as §1
# (§2) The whole-cell configuration was used to voltage-clamp at room temperature (22–25°C). Electrodes pulled from glass micropipette capillaries (Sutter Instrument) had resistances of 2–2.5 MΩ, and series resistance errors were compensated >60%. Fast and slow capacitances were compensated before the application of test-pulse. Recordings were performed using aHEKAEPC-10 amplifier with pulse software (HEKA Elektronik). […] TRPV1 and TRPA1 currents were recorded by holding the cell at −80 mV. […] ASIC currents were recorded by holding the cell at −70 mV. […]
# non-transfected cells = assay: Whole-cell patch clamp recording, non-transfected cells (control); assay type: cell-based, human; details: capsaicin 100 nM, AITC 100 µM, NGCC 10^3 µM
# Protocol: as §1, §2
# NaCl taste perception = system: NaCl taste perception; design: method as in PMID 23221408; details: NGCC 5 and 10 µM; cited from earlier work
# T1 sequence (Q8NER1 whole entry): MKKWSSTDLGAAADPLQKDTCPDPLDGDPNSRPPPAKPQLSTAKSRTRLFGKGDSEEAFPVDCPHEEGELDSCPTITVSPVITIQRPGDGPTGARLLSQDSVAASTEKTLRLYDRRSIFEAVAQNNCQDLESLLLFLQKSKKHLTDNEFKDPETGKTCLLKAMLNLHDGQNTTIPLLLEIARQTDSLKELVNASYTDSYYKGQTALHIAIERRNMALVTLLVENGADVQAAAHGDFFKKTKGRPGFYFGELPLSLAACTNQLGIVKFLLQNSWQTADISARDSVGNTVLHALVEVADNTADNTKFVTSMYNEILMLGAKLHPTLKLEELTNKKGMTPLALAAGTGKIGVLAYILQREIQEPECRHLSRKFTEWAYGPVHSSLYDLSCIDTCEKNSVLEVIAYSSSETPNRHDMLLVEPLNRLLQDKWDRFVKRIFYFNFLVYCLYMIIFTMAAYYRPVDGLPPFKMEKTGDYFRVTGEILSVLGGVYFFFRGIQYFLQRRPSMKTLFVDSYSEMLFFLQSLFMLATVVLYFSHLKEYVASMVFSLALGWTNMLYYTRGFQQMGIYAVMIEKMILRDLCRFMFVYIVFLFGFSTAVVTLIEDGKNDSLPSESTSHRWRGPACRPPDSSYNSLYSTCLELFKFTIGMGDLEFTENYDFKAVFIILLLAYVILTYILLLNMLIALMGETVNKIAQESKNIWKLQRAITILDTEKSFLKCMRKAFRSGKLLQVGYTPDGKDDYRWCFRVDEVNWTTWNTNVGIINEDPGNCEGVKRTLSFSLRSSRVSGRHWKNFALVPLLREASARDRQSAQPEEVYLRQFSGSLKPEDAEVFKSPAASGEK
compound,measurement,setting,value
"CC(C)=CCC/C(C)=C/CNC(=O)C1CC1 [NGCC, N-geranylcyclopropylcarboxamide]",change in fluorescence in mock-transfected cells,[1],no changes in fluorescence
same,inward current in cells expressing hTRPV1,hTRPV1,triggered an inward current
same,activation of ASIC1a homomeric channels,mASIC1a,not sensitive
same,current in non-transfected cells,non-transfected cells,no current
same,effect on NaCl taste in human sensory studies,NaCl taste perception,significant enhancement in NaCl taste
